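1) Cells in 96-well plates. 2) Compound, 48 h, 5 concentrations. 3) Linear interpolation between surrounding doses. 4) Unreached endpoint = highest concentration. GI50 is the concentration that inhibits growth by half. Definition used: TGI = concentration required for complete inhibition of growth.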
Columns and labels:
Experiment in all cases: inhibition of tumour cell growth, NCI panel, 48 h
[1] = tested on: SK-MEL-28 melanoma
[2] = tested on: SF-295 CNS
[3] = tested on: IGROV1 ovarian
[4] = tested on: A498 renal
[5] = tested on: SR leukemia
[6] = tested on: HCT-15 colon
[7] = tested on: COLO 205 colon
[8] = tested on: HT29 colon
[9] = tested on: SN12C renal
[10] = tested on: CCRF-CEM leukemia

COc1ccc(S(=O)(=O)N(Cc2ccc3c(n2)C=CC(C)(C)O3)C2CCC2)cc1OC
GI50 [1]: < 0.01 µM | TGI [1]: 0.461 µM | GI50 [2]: 0.0134 µM | TGI [2]: 0.542 µM | GI50 [3]: < 0.01 µM | TGI [3]: 0.262 µM | GI50 [4]: < 0.01 µM | TGI [4]: 0.0431 µM | GI50 [5]: < 0.01 µM | TGI [5]: 0.0324 µM | GI50 [6]: 0.0154 µM | TGI [6]: > 33.6 µM | GI50 [7]: < 0.01 µM | TGI [7]: 0.0537 µM | GI50 [8]: 0.021 µM | TGI [8]: > 36.6 µM | GI50 [9]: < 0.01 µM | TGI [9]: 0.161 µM | GI50 [10]: < 0.01 µM | TGI [10]: 0.0922 µM

COc1cccc(NCc2nnc(Nc3ccc(Cl)cc3)c3ccccc23)c1
GI50 [1]: 2.62 µM | TGI [1]: 6.17 µM | GI50 [2]: 1.94 µM | TGI [2]: 8.25 µM | GI50 [3]: 0.904 µM | TGI [3]: 6.3 µM | GI50 [4]: 1.27 µM | TGI [4]: 4.42 µM | GI50 [5]: 0.979 µM | TGI [5]: 8.85 µM | GI50 [6]: 1.78 µM | TGI [6]: 7.56 µM | GI50 [7]: 0.492 µM | TGI [7]: 4.01 µM | GI50 [8]: 0.34 µM | TGI [8]: 3.62 µM | GI50 [9]: 2.52 µM | TGI [9]: 10.7 µM | GI50 [10]: 2.73 µM | TGI [10]: 13.4 µM

O=C1C2=C(CC3C(C2)C3(Br)Br)C(=O)C2=C1CC1C(C2)C1(Br)Br (stereo not given)
TGI [1]: > 100 µM | TGI [2]: > 100 µM | TGI [3]: > 100 µM | TGI [4]: > 100 µM | TGI [5]: > 100 µM | TGI [6]: > 100 µM | TGI [7]: > 100 µM | TGI [8]: > 100 µM | TGI [9]: > 100 µM | TGI [10]: > 100 µM

Cc1cccc(N2C(=O)C(Cl)=C(Cl)C2=O)c1
TGI [1]: > 100 µM | TGI [2]: > 100 µM | TGI [3]: > 100 µM | TGI [4]: > 100 µM | TGI [5]: 79.7 µM | TGI [6]: > 58.4 µM | TGI [7]: > 100 µM | TGI [8]: > 100 µM | TGI [9]: > 100 µM | TGI [10]: > 61 µM

O=C(CCCSc1nc(-c2ccc(Cl)cc2)cc(-c2ccc(Cl)cc2)n1)NO
GI50 [1]: 3.15 µM | TGI [1]: 17 µM | GI50 [2]: 1.17 µM | TGI [2]: 6.9 µM | GI50 [3]: 1.15 µM | TGI [3]: 11.2 µM | GI50 [4]: 1.41 µM | TGI [4]: 4.26 µM | GI50 [5]: 0.339 µM | TGI [5]: 13 µM | GI50 [6]: 0.385 µM | TGI [6]: 11.9 µM | GI50 [7]: 2.06 µM | TGI [7]: 6.21 µM | GI50 [8]: 1.14 µM | TGI [8]: 60 µM | GI50 [9]: 0.513 µM | TGI [9]: 7.22 µM | GI50 [10]: 0.517 µM | TGI [10]: > 100 µM

CC12CCCC(CC(=O)c3[nH]c4ccccc4c31)C2 (stereo not given)
GI50 [1]: 2.03 µM | TGI [1]: > 100 µM | GI50 [2]: 0.508 µM | TGI [2]: 7.37 µM | GI50 [3]: 0.793 µM | TGI [3]: > 100 µM | GI50 [4]: 0.483 µM | TGI [4]: 4 µM | GI50 [5]: 0.238 µM | TGI [5]: 66.1 µM | GI50 [6]: 0.413 µM | TGI [6]: 24.4 µM | GI50 [7]: 1.29 µM | TGI [7]: 5.3 µM | GI50 [8]: 0.377 µM | TGI [8]: 6.27 µM | GI50 [9]: 1.91 µM | TGI [9]: 20.3 µM | GI50 [10]: 0.459 µM | TGI [10]: > 100 µM

N#Cc1cnsc1
TGI [1]: > 100 µM | TGI [2]: > 100 µM | TGI [3]: > 100 µM | TGI [4]: > 100 µM | TGI [5]: > 100 µM | TGI [6]: > 100 µM | TGI [7]: > 100 µM | TGI [8]: > 100 µM | TGI [9]: > 100 µM | TGI [10]: > 100 µM

CN1C(NC(=O)c2ccc(Cl)nc2)=NS(=O)(=O)c2cc(Cl)ccc21
GI50 [1]: > 100 µM | TGI [1]: > 100 µM | GI50 [2]: > 100 µM | TGI [2]: > 100 µM | GI50 [3]: > 100 µM | TGI [3]: > 100 µM | GI50 [4]: > 100 µM | TGI [4]: > 100 µM | GI50 [5]: > 100 µM | TGI [5]: > 100 µM | GI50 [6]: > 100 µM | TGI [6]: > 100 µM | GI50 [7]: > 100 µM | TGI [7]: > 100 µM | GI50 [8]: > 100 µM | TGI [8]: > 100 µM | GI50 [9]: > 100 µM | TGI [9]: > 100 µM | GI50 [10]: > 100 µM | TGI [10]: > 100 µM

CCCNC(=S)N/N=C(\C)c1ccccn1
GI50 [1]: 1.98 µM | TGI [1]: > 100 µM | GI50 [2]: 0.294 µM | TGI [2]: > 100 µM | GI50 [3]: < 0.01 µM | TGI [3]: > 100 µM | GI50 [4]: 0.435 µM | TGI [4]: 4.83 µM | GI50 [5]: 0.0517 µM | TGI [5]: 4.37 µM | GI50 [6]: 0.0514 µM | TGI [6]: > 100 µM | GI50 [7]: 0.04 µM | TGI [7]: > 100 µM | GI50 [8]: < 0.0127 µM | TGI [8]: > 100 µM | GI50 [9]: 0.268 µM | TGI [9]: > 100 µM | GI50 [10]: 0.018 µM | TGI [10]: > 100 µM

NC1C2(CCCCCC2)NC(=O)C12CCCCCC2 (stereo not given)
TGI [1]: > 100 µM | TGI [2]: > 100 µM | TGI [3]: > 100 µM | TGI [4]: > 100 µM | TGI [5]: > 100 µM | TGI [6]: > 100 µM | TGI [7]: > 100 µM | TGI [8]: > 100 µM | TGI [9]: > 100 µM | TGI [10]: > 100 µM

COc1ccc(C2CC(=O)c3c(O)c(OC)c(OC)c(OC)c3O2)c(O)c1 (stereo not given)
GI50 [1]: 10.5 µM | TGI [1]: 25.6 µM | GI50 [2]: 0.349 µM | TGI [2]: 14.6 µM | GI50 [3]: 0.535 µM | TGI [3]: 39.6 µM | GI50 [4]: 0.126 µM | TGI [4]: 0.984 µM | GI50 [5]: 0.0582 µM | TGI [5]: 27 µM | GI50 [6]: 0.0498 µM | TGI [6]: 17.8 µM | GI50 [7]: 4.43 µM | TGI [7]: 18 µM | GI50 [8]: 2.64 µM | TGI [8]: > 100 µM | GI50 [9]: 1.23 µM | TGI [9]: 70.4 µM | GI50 [10]: 0.134 µM | TGI [10]: 31.5 µM

COC(=O)C(=O)C(C(=O)C=C(C)C)C(=O)C(=O)Nc1ccc(Cl)cc1C (stereo not given)
TGI [1]: > 100 µM | TGI [2]: > 100 µM | TGI [3]: > 100 µM | TGI [4]: > 100 µM | TGI [5]: 45.2 µM | TGI [6]: > 100 µM | TGI [7]: > 100 µM | TGI [8]: > 100 µM | TGI [9]: > 100 µM | TGI [10]: > 100 µM

O=C(O)C(Sc1ccc(Cl)cc1)Sc1ccc(Cl)cc1
TGI [1]: > 100 µM | TGI [2]: > 100 µM | TGI [3]: > 100 µM | TGI [4]: 95.5 µM | TGI [5]: > 100 µM | TGI [6]: > 100 µM | TGI [7]: 59 µM | TGI [8]: > 100 µM | TGI [9]: > 100 µM | TGI [10]: > 100 µM

O=C(C[C@@H](C(=O)NCc1cccc(C(F)(F)F)c1)N1C(=O)[C@@H](N2C(=O)OC[C@@H]2c2ccccc2)[C@H]1/C=C/c1ccccc1)NC1CCN(Cc2ccccc2)CC1
GI50 [1]: 2.19 µM | TGI [1]: 5.8 µM | GI50 [2]: 15.6 µM | TGI [2]: 30.8 µM | GI50 [3]: 13.3 µM | TGI [3]: 32.4 µM | GI50 [4]: 2.19 µM | TGI [4]: 11.9 µM | GI50 [5]: 1.89 µM | TGI [5]: 5.43 µM | GI50 [6]: 10.9 µM | TGI [6]: 35.2 µM | GI50 [7]: 2.48 µM | TGI [7]: 7.12 µM | GI50 [8]: 1.67 µM | TGI [8]: 3.53 µM | GI50 [9]: 9.46 µM | TGI [9]: 30.7 µM | GI50 [10]: 2.79 µM | TGI [10]: 7.84 µM

Nc1nccc(-c2c(-c3ccc(F)cc3)ncn2CCCN2CCOCC2)n1
GI50 [1]: > 25 µM | TGI [1]: > 25 µM | GI50 [2]: > 25 µM | TGI [2]: > 25 µM | GI50 [3]: > 25 µM | TGI [3]: > 25 µM | GI50 [4]: > 19.2 µM | TGI [4]: > 25 µM | GI50 [5]: > 25 µM | TGI [5]: > 25 µM | GI50 [6]: > 25 µM | TGI [6]: > 25 µM | GI50 [7]: > 25 µM | TGI [7]: > 25 µM | GI50 [8]: > 25 µM | TGI [8]: > 25 µM | GI50 [9]: > 25 µM | TGI [9]: > 25 µM | GI50 [10]: > 25 µM | TGI [10]: > 25 µM

Reference: PubChem BioAssay (NCI)
